Data taken from patent US20200236933A1, “USE OF A NON-IONIC SURFACTANT WHICH IS A POLYOL DERIVATIVE AS A PLANT GROWTH STIMULATING AGENT OR AS AN ADJUVANT” (priority 2017, published 2020).

Legend:
[1] = Homogenization of the mixture; type: physicochemical; conditions: 1% with 2% glycerin colored blue
Text: The mixtures were next stirred in equivalent manner. Photographs are taken after stirring.

[2] = Drift limitation: size of drops after spraying; type: physicochemical; conditions: 2.5% with 5% titanium dioxide; 2, 4 and 8 bars
Text: Increasing pressures (2, 4 and 8 bars) were used in order to test different conditions (FIG. 21: a, b and c respectively). The greater the pressure the more numerous and fine were the drops.

[3] = tested on: flat-leaf parsley variety NOVAS; experiment: Root growth, assays in fields; type: in vivo, Petroselinum crispum var. neapolitanum; conditions: seeds immersed 1 h in 2.5% solution; 12 weeks after sowing
Protocol: In order to test the effect of the invention in conditions of crops in fields, the flat-leaf parsley variety NOVAS (Petroselinum crispum var. neapolitanum) is used.
The seeds are next dried in a heating tunnel at 45° C. for 1 h.
The seeds are mechanically sown (seeder) on strips of four rows each one beside the other to limit as much as possible the variations in soil quality, insulation and temperature. 12 weeks after sowing, 25 parsley plants were taken in order to measure several parameters of the roots: their weight, their length, and their diameter.

[4] = tested on: winter barley (Sobell variety); experiment: Yield of winter barley in climate controlled chamber; type: in vivo; conditions: 3 l/ha of 3% solution sprayed at commencement of tillering
Protocol: Assays in a climate controlled chamber (temperature 22° C./20° C., photoperiod 16 h/8 h, 25,000 lux) were carried out on winter barley (Sobell variety, Arvalis). The barley was sowed in containers of 1 meter by 1 meter.
The plants were then watered every 2 weeks with the same amount of water for both control batch and treated batch.
The yields were then calculated as the ratio of the weight of harvested seeds to the sowed area. This ratio is expressed in q/ha.

[5] = tested on: detached leaves of Buddleja davidii; experiment: Stickiness of a solution on the leaf (washing off); conditions: 2.5% with 3% titanium dioxide; washed with 14 g water
Text: A solution is applied by spraying on detached leaves of Buddleja davidii disposed flat on a support.
The leaves were next left at ambient temperature until the sprayed solutions had completely evaporated.
14 grams of water are next sprayed onto the leaves held vertical to simulate rain. The titanium residues on the leaf are next observed.

rape leaf = experiment: Penetration of a colored aqueous solution through the cuticle; conditions: 2.5% solution, 2 h on rape leaf then wiped
Protocol: Rape, a plant known for having a thick cuticle, was chosen in order to test the effectiveness of the invention as a penetrating agent.
A colorant in aqueous solution was deposited on a rape leaf, then left for 2 h and then wiped.

homogenization of the mixture [1]: better homogenization of the mixture | titanium dioxide residue on the leaf after washing [5]: still clearly visible
Substance: sucrose stearate
size of the drops after spraying [2]: enables an increase the size of the drops | diameter of the taproot, on average greater than the control [3]: 30% | roots with a length of more than 10 cm [3]: 74% | weight of the taproot, on average greater than the control [3]: 70% | Yield [4]: 67.9 q/ha | yield increase [4]: 25% | penetration of the colorant through the cuticle (rape leaf): enables the colorant to color the leaf and thus to penetrate through the cuticle
